The subject of this assay is CDDP-resistant human lung cancer MOR/CPR cells. The assay can be described thus: In vitro cell growth inhibitory effect (WST method) on CDDP-resistant human lung cancer MOR/CPR cells. The assay is classed as cell-based. The following applies: gemcitabine hydrochloride alone, estimated. The procedure: The GI50 value in the case of gemcitabine hydrochloride alone was estimated to be about 10 μg/mL.
The cisplatin coordination compound obtained in Example 1 was prepared as a mannitol solution having a final concentration of 5% so as to contain 2.5 mg/mL in terms of CDDP. […] Furthermore, the concentrations or dosages of the cis-platin coordination compound are all indicated as the concentrations or dosages in terms of CDDP.

Counter-ions that a name gives are not always drawn.

For orientation: GI50 means the concentration giving 50% growth inhibition.

`Nc1ccn([C@@H]2O[C@H](CO)[C@@H](O)C2(F)F)c(=O)n1` [gemcitabine hydrochloride, Gemcitabine hydrochloride]: the GI50 is around 10 µg/mL.

(Values after patent USRE45471E1, “Pharmaceutical composition or combination drug” (Nanocarrier Co., Ltd., priority 2008, dated 2015).)
